Measurements: patent publication US10434132B2, “Galactolipids-enriched plant extracts and the uses thereof” (ACADEMIA SINICA, priority 2013, dated 2019)

Experiments:
B16 melanoma cells = assay: Depigmentation assay in B16 melanoma cells; assay type: cell-based; settings: FIG. 10B; 45 μM, vs vehicle control
Experimental: B16 melanoma cell line was obtained from ATCC (Manassas, Va.) and grown in RPMI medium 1640 (Gibco/BRL) supplemented with 10% heat-inactivated fetal bovine serum, 100 unit/mL penicillin and 100 μg/mL streptomycin, at 37° C. in a humidified 5% CO2 incubator.
B16 melanoma cell line was plated on to 10 cm culture dishes at an initial density of 1×10^5 cells dish^−1 and then cultured under the same condition described above. After 12 hours of seeding, the cells were treated by vehicle DMSO, kojic acid (KA), ethyl acetate (EA) fractions of CR's water and ethanolic extractions (Hou et al., 2007) for 72 hours. These cells were harvested by centrifuge and visually evaluated the color of these cell pellets. In another experiment, depigmentation effect of the single compound dLGG was observed and evaluated at different time points with the same procedure.

LPS-challenged mice = assay: LPS-induced acute inflammation and sepsis in mice; assay type: in vivo
Experimental: (§1) The plant components or the drugs were all injected an hour before administration of LPS. Another animal group was only treated with 25 mg/kg dLGG (dLGG 25 only). All groups were sacrificed after 24 hours and blood samples were collected by retro-orbital bleeding before scarification of mice and organ tissues were collected immediately.
(§2) Liver, lung and kidney tissues were fixed in 10% buffered formalin then it were embedded into paraffin. The paraffin-embedded tissues were sliced (8-μm) and stained by hematoxylin and eosin (H&E). Besides, sections of paraffin-embedded liver and lung (4-μm for thickness) were heat immobilized and deparaffinized by use of xylene and rehydrated in a graded series of ethanol with a final wash in distilled water, and finally soaked into decloaking chamber (Biocare Medical) containing Target Retrieval Solution (DakoCytomation) for antigen retrieval.
Immunohistochemistry with liver, lung and kidney tissues were done by incubating the samples into F4/80 primary antibody for overnight respectively. After subsequent washing, each of the samples was incubated using florescent-labeled secondary antibody. Florescent images of the macrophage cell infiltration (positive F4/80 stained cell) were captured by AxioVision software (Carl Zeiss MicroImaging, Inc.) and then analyzed.
(§3) Blood samples of tested mice were centrifuged under 4° C., 1400× g for 15 minutes to separate serum from blood. Commercial kit purchased from Randox Laboratories (UK) was used to determine the activity of aspartate aminotransferase (AST) and alanine aminotransferase (ALT) in serum supernatants.
Serum levels of interleukin (IL-6) and tumor necrosis factor-alpha (TNF-α) were determined using a commercial kit from eBioscience.

PPAR-δ = PPAR-δ expression in LPS-challenged mice; assay type: in vivo; settings: FIG. 9B, 9D; pre-treatment before LPS
Experimental: as §1

tyrosinase = assay: Western blot of tyrosinase expression in B16 melanoma cells; assay type: cell-based; settings: FIG. 10C, 45 μM dLGG
Experimental: (§4) The cellular proteins were produced according to previously published method (Chiang et al., 2005). Protein content was measured by Bradford method (Bio-Rad).
(§5) Molecular mechanism of dLGG depigmentation effect was further studied. Western blotting assay was preceded for testing the effect of dLGG on tyrosinase and MITF expression.

[1] = dLGG only treatment of mice without LPS challenge; assay type: in vivo; settings: dLGG 25 mg/kg only, no LPS, 24 hours
Experimental: as §1
Moreover, one group of mice was treated with dLGG (25 mg/kg) without LPS challenge. All the mice were sacrificed after 24 hours. Mice sera were collected to measure and compare the concentration of IL-6 and TNF-α, and the levels of AST and ALT.

[2] = test system: LPS/D-GaIN-challenged mice; assay: LPS/D-GaIN-induced acute fulminant hepatitis in mice; assay type: in vivo
Experimental: The hepatoprotective effect in live body of compound dLGG isolated from Crassocephalum rabens (Asteraceae) in LPS/D-GaIN-induced fulminant hepatitis were investigated and compared with the hepatoprotective drug, silymarin (SM). Mice were randomly separated into four groups (n=6 per group) for treatments: vehicle; LPS/D-GaIN; 50 mg/kg of silymarin (Post-SM50); and 10 mg/kg dLGG (post-dLGG10), and all treatments were given intraperitoneally. One hour after the mice treated with 500 ng LPS and 250 μL saline containing 25 mg D-GaIN (Huang et al., 2012), the dLGG and silymarin were given intraperitoneally. Besides, the other two groups of mice were treated dLGG or silymarin continuously for three days to perform the protection effect of dLGG against LPS/D-GaIN induced fulminate hepatitis. Eight hours after LPS/D-GaIN injection, blood samples were collected through retro-orbital bleeding, and then all mice were sacrificed to collect blood samples and liver tissues.
as §2
In situ detection of apoptotic cells was conducted according to the manufacturer's protocol (Chemicon). It is using terminal deoxynucleotidyl transferase to work on nucleotide sequence to […] for terminal deoxynucleotidyl transferase-mediated dUTP nick end labeling. Finally, AxioVision software (Carl Zeiss MicroImaging, Inc.) was used to analyze the number of TUNEL-positive cells.
as §3

MITF = assay: Western blot of MITF expression in B16 melanoma cells; assay type: cell-based; settings: FIG. 10C, 45 μM dLGG
Experimental: as §4, §5

[3] = test system: hypoxia inducible factor-1α (HIF-1α); assay: HIF-1α expression in LPS-challenged mice; assay type: in vivo; settings: FIG. 9A, 9C; pre-treatment before LPS
Experimental: as §1

[4] = high dose (CR-EA 50 mg/kg, dLGG 25 mg/kg) 1 hour before 10 mg/kg LPS, serum at 24 hours
[5] = FIG. 5A, dLGG 10 mg/kg or SM 50 mg/kg i.p. 1 hour after LPS/D-GaIN, blood at 8 hours

## CC/C=C\C/C=C\C/C=C\CCCCCCCC(=O)OC[C@H](CO[C@@H]1O[C@H](CO)[C@H](O)[C@H](O)[C@H]1O)OC(=O)CCCCCCC/C=C\C/C=C\C/C=C\CC [dLGG, 1,2,di-O-α-linolenoyl-3-O-β-galactopyranosyl-sn-glycerol]
B16 melanoma cells
  depigmentation of B16 melanoma cells at different time points: significantly depigmentation in a time-dependent manner
LPS-challenged mice; FIG. 8A, pre-treated 1 hour before LPS, simvastatin 10 mg/kg
  sepsis-induced acute kidney injury, renal histology (H&E): remarkably protective effect
LPS-challenged mice; FIG. 8C, pre-treated 1 hour before LPS, simvastatin 10 mg/kg
  infiltration and activation of macrophages (F4/80 immunohistology staining): decreased infiltration and activation of macrophages
LPS-challenged mice; dLGG 25 mg/kg after LPS-challenge, data not shown
  damages in mice liver, lung and kidney caused by LPS: effectively reduce damages
LPS-challenged mice; [4]
  serum ALT decrease: 2.3 times
  serum AST decrease: 1.8 times
  serum IL-6 decrease: 3.5 times
  serum TNF-α decrease: 3.0 times
PPAR-δ
  PPAR-δ expression: down-regulated
tyrosinase
  expression of tyrosinase (western blot): inhibit the expression
[1]
  harm to mice: harmfulless to mice
[2]; [5]
  serum ALT level: significantly inhibit
  serum AST level: significantly inhibit
[2]; FIG. 5B, dLGG 10 mg/kg or SM 50 mg/kg i.p. 1 hour after LPS/D-GaIN
  liver histology H&E (infiltration of inflammatory cells into liver lobules, tissue destruction, erythrocyte influx): attenuated
[2]; FIG. 5C, dLGG 10 mg/kg i.p. after LPS/D-GaIN
  numbers of apoptosis cells, TUNEL positive-stained cells in liver tissue: significantly decreased
[2]; pre-treated 1 or 10 mg/kg 1 hour before LPS/D-GaIN-challenge, data not shown
  protection against LPS/D-GaIN-induced fulminant hepatic failure: significant protection effect
MITF
  expression of MITF (western blot): inhibit the expression
[3]
  HIF-1α expression: down-regulated
